Source: patent US7446091B2, “Methods and preparations for curing clinically ill patients” (Novo Nordisk A/S, priority 2000, dated 2008)

System: mechanically ventilated, adult patients admitted to the intensive care unit (ICU)
Test: Example 2: prospective, randomized, controlled study, morbidity analysis
Assay type: in vivo, human
From the text: All mechanically ventilated, adult patients admitted to the intensive care unit (ICU) were eligible for inclusion.
At baseline, demographic, diagnostic and therapeutic information as well as information necessary to determine severity of illness and utilization of ICU resources were obtained from each patient (Table 1). These included APACHE-II (Acute Physiology and Chronic Health Evaluation) score with higher values indicating more severe illness (see Knaus) and simplified Therapeutic Intervention Scoring System (TISS-28) with higher values indicating a higher number of therapeutic interventions (see Reis Miranda & Keene). APACHE II and TISS scores were calculated daily from ICU admission to discharge or death.
A blood sample was taken upon ICU admission and daily at 06:00 h until discharge from ICU or death. On-admission and daily morning, whole blood glucose level as well as daily maximal and minimal glycemia were analysed. Analyses on the 06:00 h sample also included clinical chemistry, hematology and markers of inflammation.
Blood cultures were taken whenever continously monitored central body temperature acutely rose above 38.5° C. Results from all blood cultures were interpreted by the same blinded investigator. An episode of bacteremia, fungemia or mycobacteremia was defined by the first positive blood culture in a series. To identify a blood stream infection with coagulase-negative staphylocci, identical strains (compared by antibiogram) of microorganisms in two or more positive blood cultures were required (see Weinstein 1997 and Weinstein 1998).
In patients treated in ICU for more than one week, a weekly electromyography (EMG) was performed to screen for Critical Illness Polyneuropathy. EMGs were interpreted by the same electrophysiologist who was blinded for randomization. In case of ICU death, a post-mortem examination was performed to confirm the presumed cause of death.
The primary outcome measure was death from all causes during intensive care. Secondary outcome measures were in-hospital mortality, incidence of prolonged intensive care dependency and need for ICU re-admission, need for vital organ system support comprising mechanical ventilatory support, renal replacement therapy (continuous or intermittent hemofiltration or dialysis), inotropic or vasopressor support, incidence of critical illness polyneuropathy, the degree of inflammation, incidence of blood stream infections and use of antibiotics, transfusion requirements and incidence of hyperbilirubinemia. Furthermore, use of intensive care resources was analysed by cumulative TISS scores. In order to accurately and objectively assess duration of ICU stay, which is often influenced by non-patient related factors such as bed availability on regular wards, patients were defined ‘dischargable from ICU’ when they were no longer in need of vital organ system support and received at least ⅔rd of the caloric need through the normal enteral route or earlier when actually sent to a ward.
Baseline and outcome variables were compared using Student's t-test, Chi-square test and Mann-Whitney-U test, as appropriate. Death odds ratios were calculated using multivariate logistic regression analysis. The effect on time of in-hospital death was assessed by Kaplan-Meier analysis and logrank (Mantel-Cox) significance testing. Patients discharged from the hospital were considered as survivors. Data are presented as percentages, means ±SD or medians (25th-75th percentile) unless indicated otherwise.

Substance: insulin
- >3 days C-reactive protein level above 150 mg/L (%) (IIS): (15%)
- >3 days C-reactive protein level above 150 mg/L - total no. (IIS): 119
- >3 days central body temperature ≤36° C. or […]38° C. (%) (IIS): (21%)
- >3 days central body temperature ≤36° C. or […]38° C. - total no. (IIS): 164
- >3 days white blood cell count ≤4000/μL or […]12000/μL (%) (IIS): (16%)
- >3 days white blood cell count ≤4000/μL or […]12000/μL - total no. (IIS): 121
- Lowest level of hemoglobin (g/dL) when transfused (median) (IIS): 8.3 g/dL
- Number of patients requiring red cell transfusion (%) (IIS): (29%)
- Number of patients requiring red cell transfusion - total no (IIS): 219
- Patients needing dialysis or CVVH (%) (IIS): (4.8%)
- Patients needing dialysis or CVVH - total no (IIS): 37
- Patients on inotropic/vasopressor treatment (%) (IIS): (75%)
- Patients on inotropic/vasopressor treatment - total no. (IIS): 574
- Patients requiring >7 days intensive care (%) (IIS): (20.5%)
- Patients requiring >7 days intensive care - total no (IIS): 157
- Patients requiring >7 days ventilatory support (%) (IIS): (16.9%)
- Patients requiring >7 days ventilatory support - total no. (IIS): 125
- Patients requiring >14 days intensive care (%) (IIS): (11.4%)
- Patients requiring >14 days intensive care - total no (IIS): 87
- Patients requiring >14 days ventilatory support (%) (IIS): (7.7%)
- Patients requiring >14 days ventilatory support - total no. (IIS): 57
- Patients requiring >21 days intensive care (%) (IIS): (6.5%)
- Patients requiring >21 days intensive care - total no (IIS): 50
- Patients requiring >21 days ventilatory support (%) (IIS): (5.0%)
- Patients requiring >21 days ventilatory support - total no. (IIS): 37
- Patients treated with antibiotics for >10 days (%) (IIS): (11.2%)
- Patients treated with antibiotics for >10 days - total no. (IIS): 86
- Patients with an ICU stay of >5 days (IIS): 27%
- Patients with blood stream infections during intensive care (%) (IIS): (4.2%)
- Patients with blood stream infections during intensive care - total no (IIS): 32
- Patients with critical illness polyneuropathy (% of EMG-screened) (IIS): (29%)
- Patients with hyperbilirubinemia (peak bilirubin >2 mg/dL) (%) (IIS): (22%)
- Patients with hyperbilirubinemia (peak bilirubin >2 mg/dL) - total no. (IIS): 171
- Peak plasma creatinine >2.5 mg/dL (%) (IIS): (9.0%)
- Peak plasma creatinine >2.5 mg/dL - total no. (IIS): 69
- Peak plasma urea concentration >150 mg/dL (%) (IIS): (7.7%)
- Peak plasma urea concentration >150 mg/dL - total no. (IIS): 59
- Repetitive (>2) positive EMGs (% of EMG screened) (IIS): (7%)
- Repetitive (>2) positive EMGs - total no (IIS): 11
- >3 days C-reactive protein level above 150 mg/L, NNT (IIS vs RIS): 17
- >3 days C-reactive protein level above 150 mg/L, RRR (%) (IIS vs RIS): 29%
- >3 days abnormal central body temperature, NNT (IIS vs RIS): 20
- >3 days abnormal central body temperature, RRR (%) (IIS vs RIS): 19%
- >3 days abnormal white blood cell count, NNT (IIS vs RIS): 20
- >3 days abnormal white blood cell count, RRR (%) (IIS vs RIS): 24%
- In-hospital stay, difference between the two study groups (IIS vs RIS): not detectably different
- Patients needing dialysis or CVVH, NNT (IIS vs RIS): 29
- Patients needing dialysis or CVVH, RRR (%) (IIS vs RIS): 42%
- Patients on inotropic/vasopressor treatment, RRR (%) (IIS vs RIS): =
- Patients requiring >7 days intensive care, NNT (IIS vs RIS): 17
- Patients requiring >7 days intensive care, RRR (%) (IIS vs RIS): 22%
- Patients requiring >7 days ventilatory support, NNT (IIS vs RIS): 16
- Patients requiring >7 days ventilatory support, RRR (%) (IIS vs RIS): 27%
- Patients requiring >14 days intensive care, NNT (IIS vs RIS): 23
- Patients requiring >14 days intensive care, RRR (%) (IIS vs RIS): 27%
- Patients requiring >14 days ventilatory support, NNT (IIS vs RIS): 22
- Patients requiring >14 days ventilatory support, RRR (%) (IIS vs RIS): 37%
- Patients requiring >21 days intensive care, NNT (IIS vs RIS): 33
- Patients requiring >21 days intensive care, RRR (%) (IIS vs RIS): 32%
- Patients requiring >21 days ventilatory support, NNT (IIS vs RIS): 31
- Patients requiring >21 days ventilatory support, RRR (%) (IIS vs RIS): 39%
- Patients treated with antibiotics for >10 days, NNT (IIS vs RIS): 17
- Patients treated with antibiotics for >10 days, RRR (%) (IIS vs RIS): 35%
- Patients with blood stream infections, NNT (IIS vs RIS): 28
- Patients with blood stream infections, RRR (%) (IIS vs RIS): 46%
- Patients with critical illness polyneuropathy, RRR (%) (IIS vs RIS): 44%
